Measured values reported in patent US20240190890A1, “MK2 INHIBITORS AND USES THEREOF” (Bristol-Myers Squibb Company, priority 2022, published 2024).

Target: p38a activated, mitogen-activated protein kinase-activated protein kinase 2 (MAPKAP-K2 or MK2) enzyme (Homo sapiens (Human), UniProt P49137)
Assay: MK2 Omnia continuous-read kinase assay for compound potency
Assay type: biochemical
Conditions: [MK-2]=0.4 nM, [ATP]=10 μM, [ST3-Sox]=10 μM; room temperature
Method in brief: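 p38a-activated MK2 (0.4 nM) with 10 μM ATP (apparent Km) and 10 μM S/T3-Sox peptide in Tris pH 7.5 buffer with MgCl2, EGTA and DTT. Fluorescence (ex360/em485) read continuously for 120 min at room temperature. IC50 from initial linear slopes; apparent kinact/KI from kobs of exponential progress-curve fits.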

Sequence of p38a activated, mitogen-activated protein kinase-activated protein kinase 2 (MAPKAP-K2 or MK2) enzyme (P49137 whole entry): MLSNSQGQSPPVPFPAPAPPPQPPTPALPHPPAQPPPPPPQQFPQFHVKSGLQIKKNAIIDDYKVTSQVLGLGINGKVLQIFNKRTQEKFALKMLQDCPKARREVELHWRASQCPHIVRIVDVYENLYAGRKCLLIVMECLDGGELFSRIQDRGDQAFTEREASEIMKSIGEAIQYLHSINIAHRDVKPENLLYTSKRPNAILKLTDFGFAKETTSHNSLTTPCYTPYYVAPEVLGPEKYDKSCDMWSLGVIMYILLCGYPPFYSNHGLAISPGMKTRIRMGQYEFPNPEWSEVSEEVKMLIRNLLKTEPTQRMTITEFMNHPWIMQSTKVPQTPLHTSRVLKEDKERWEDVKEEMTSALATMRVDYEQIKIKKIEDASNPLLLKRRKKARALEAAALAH

Row | Compound | IC50 [nM]
1 | C=Cc1cc(-c2ccc3c(ccc4sc5c(c43)NC[C@@H](C)NC5=O)n2)c(OC(F)F)cn1 [Example I-247, (R)-3-(5-(difluoromethoxy)-2-vinylpyridin-4-yl)-10-methyl-9,10,11,12-tetrahydro-8H-[1,4]diazepino[5′,6′:4,5]thieno[3,2-f]quinolin-8-one] | 360
2 | C#Cc1cc(-c2ccc3c(ccc4sc5c(c43)NC[C@@H](C)NC5=O)n2)c(CN2CCOCC2)cn1 [Example I-154, (R)-3-(2-ethynyl-5-(morpholinomethyl)pyridin-4-yl)-10-methyl-9,10,11,12-tetrahydro-8H-[1,4]diazepino[5′,6′:4,5]thieno[3,2-f]quinolin-8-one] | 49
3 | C=Cc1cc(-c2ccc3c(ccc4sc5c(c43)NC[C@@H](C)NC5=O)n2)c(C(F)F)cn1 [Example I-130, (R)-3-(5-(difluoromethyl)-2-vinylpyridin-4-yl)-10-methyl-9,10,11,12-tetrahydro-8H-[1,4]diazepino[5′,6′:4,5]thieno[3,2-f]quinolin-8-one] | 4
4 | C=C(CN1CCOCC1)c1cc(-c2ccc3c(ccc4sc5c(c43)NC[C@@H](C)NC5=O)n2)c(OC)nn1 [Example I-138, (R)-3-(3-methoxy-6-(3-morpholinoprop-1-en-2-yl)pyridazin-4-yl)-10-methyl-9,10,11,12-tetrahydro-8H-[1,4]diazepino[5′,6′:4,5]thieno[3,2-f]quinolin-8-one] | 96
5 | C=Cc1ncc(COC2(C)COC2)c(-c2ccc3c(ccc4sc5c(c43)NC[C@@H](C)NC5=O)n2)n1 [Example I-29, (R)-10-methyl-3-(5-(((3-methyloxetan-3-yl)oxy)methyl)-2-vinylpyrimidin-4-yl)-9,10,11,12-tetrahydro-8H-[1,4]diazepino[5′,6′:4,5]thieno[3,2-f]quinolin-8-one] | 20
6 | C#Cc1cc(-c2ccc3c(ccc4sc5c(c43)NC[C@@H](C)NC5=O)n2)nc(C#CC(C)(C)N)n1 [Example I-67, (R)-3-(2-(3-amino-3-methylbut-1-yn-1-yl)-6-ethynylpyrimidin-4-yl)-10-methyl-9,10,11,12-tetrahydro-8H-[1,4]diazepino[5′,6′:4,5]thieno[3,2-f]quinolin-8-one] | 38
7 | C/C=C\c1ncc(COCC)c(-c2ccc3c(ccc4sc5c(c43)NC[C@@H](C)NC5=O)n2)n1 [Example I-49, (R,Z)-3-(5-(ethoxymethyl)-2-(prop-1-en-1-yl)pyrimidin-4-yl)-10-methyl-9,10,11,12-tetrahydro-8H-[1,4]diazepino[5′,6′:4,5]thieno[3,2-f]quinolin-8-one] | 474
8 | C#Cc1cc(-c2ccc3c(ccc4sc5c(c43)NC[C@@H](C)NC5=O)n2)cc(N2CCN(CC)CC2)n1 [Example I-174, (R)-3-(2-(4-ethylpiperazin-1-yl)-6-ethynylpyridin-4-yl)-10-methyl-9,10,11,12-tetrahydro-8H-[1,4]diazepino[5′,6′:4,5]thieno[3,2-f]quinolin-8-one] | 98
9 | C#Cc1ncc(F)c(-c2ccc3c(ccc4sc5c(c43)NC[C@@H](C)NC5=O)n2)n1 [Example I-1, (R)-3-(2-ethynyl-5-fluoropyrimidin-4-yl)-10-methyl-9,10,11,12-tetrahydro-8H-[1,4]diazepino[5′,6′:4,5]thieno[3,2-f]quinolin-8-one] | 5
10 | C#Cc1cc(-c2ccc3c(ccc4sc5c(c43)NC[C@@H](C)NC5=O)n2)c(C(F)F)cn1 [Example I-92, (R)-3-(5-(difluoromethyl)-2-ethynylpyridin-4-yl)-10-methyl-9,10,11,12-tetrahydro-8H-[1,4]diazepino[5′,6′:4,5]thieno[3,2-f]quinolin-8-one] | 17
11 | C#Cc1cc(-c2ccc3c(ccc4sc5c(c43)NC[C@@H](C)NC5=O)n2)cc(C2CCN(C)CC2)n1 [Example I-107, (R)-3-(2-ethynyl-6-(1-methylpiperidin-4-yl)pyridin-4-yl)-10-methyl-9,10,11,12-tetrahydro-8H-[1,4]diazepino[5′,6′:4,5]thieno[3,2-f]quinolin-8-one] | 22
12 | C=Cc1cc(-c2ccc3c(ccc4sc5c(c43)NC[C@@H](C)NC5=O)n2)nc(COCC)n1 [Example I-22, (R)-3-(2-(ethoxymethyl)-6-vinylpyrimidin-4-yl)-10-methyl-9,10,11,12-tetrahydro-8H-[1,4]diazepino[5′,6′:4,5]thieno[3,2-f]quinolin-8-one] | 2
13 | C=Cc1nc(C2CC2)n(-c2ccc3c(ccc4sc5c(c43)NC[C@@H](C)NC5=O)n2)n1 [Example I-248, (R)-3-(5-cyclopropyl-3-vinyl-1H-1,2,4-triazol-1-yl)-10-methyl-9,10,11,12-tetrahydro-8H-[1,4]diazepino[5′,6′:4,5]thieno[3,2-f]quinolin-8-one] | 303
14 | C=Cc1cc(-c2ccc3c(ccc4sc5c(c43)NC[C@@H](C)NC5=O)n2)c(OC)nn1 [Example I-127, (R)-3-(3-methoxy-6-vinylpyridazin-4-yl)-10-methyl-9,10,11,12-tetrahydro-8H-[1,4]diazepino[5′,6′:4,5]thieno[3,2-f]quinolin-8-one] | 50
15 | C[C@@H]1CNc2c(sc3ccc4nc(-n5ccnc5Cl)ccc4c23)C(=O)N1 [Example I-205, (R)-3-(2-chloro-1H-imidazol-1-yl)-10-methyl-9,10,11,12-tetrahydro-8H-[1,4]diazepino[5′,6′:4,5]thieno[3,2-f]quinolin-8-one] | 97
16 | C=Cc1cc(-c2ccc3c(ccc4sc5c(c43)NC[C@@H](C)NC5=O)n2)cc(CN2CCC3(CC2)CC3(F)F)n1 [Example I-141, (R)-3-(2-((1,1-difluoro-6-azaspiro[2.5]octan-6-yl)methyl)-6-vinylpyridin-4-yl)-10-methyl-9,10,11,12-tetrahydro-8H-[1,4]diazepino[5′,6′:4,5]thieno[3,2-f]quinolin-8-one] | 111
17 | C=Cc1nc(C)c(C)n1-c1ccc2c(ccc3sc4c(c32)NC[C@@H](C)NC4=O)n1 [Example I-231, (R)-3-(4,5-dimethyl-2-vinyl-1H-imidazol-1-yl)-10-methyl-9,10,11,12-tetrahydro-8H-[1,4]diazepino[5′,6′:4,5]thieno[3,2-f]quinolin-8-one] | 28
18 | C[C@@H]1CNc2c(sc3ccc4nc(-c5ccnc(/C=C/C(F)(F)F)c5)ccc4c23)C(=O)N1 [Example I-199, (R,E)-10-methyl-3-(2-(3,3,3-trifluoroprop-1-en-1-yl)pyridin-4-yl)-9,10,11,12-tetrahydro-8H-[1,4]diazepino[5′,6′:4,5]thieno[3,2-f]quinolin-8-one] | 636
19 | C[C@@H]1CNc2c(sc3ccc4nc(-c5nc(Cl)ncc5COC5CCOCC5)ccc4c23)C(=O)N1 [Example I-24, (R)-3-(2-chloro-5-(((tetrahydro-2H-pyran-4-yl)oxy)methyl)pyrimidin-4-yl)-10-methyl-9,10,11,12-tetrahydro-8H-[1,4]diazepino[5′,6′:4,5]thieno[3,2-f]quinolin-8-one] | 98
20 | C=Cc1nc(C(F)(F)F)nn1-c1ccc2c(ccc3sc4c(c32)NC[C@@H](C)NC4=O)n1 [Example I-226, (R)-10-methyl-3-(3-(trifluoromethyl)-5-vinyl-1H-1,2,4-triazol-1-yl)-9,10,11,12-tetrahydro-8H-[1,4]diazepino[5′,6′:4,5]thieno[3,2-f]quinolin-8-one] | 7
21 | C#Cc1cc(-c2ccc3c(ccc4sc5c(c43)NC[C@@H](C)NC5=O)n2)c(C)nn1 [Example I-170, (R)-3-(6-ethynyl-3-methylpyridazin-4-yl)-10-methyl-9,10,11,12-tetrahydro-8H-[1,4]diazepino[5′,6′:4,5]thieno[3,2-f]quinolin-8-one] | 18
22 | C=Cc1cc(-c2ccc3c(ccc4sc5c(c43)NC[C@@H](C)NC5=O)n2)cc(N2CC(F)(F)C2)n1 [Example I-184, (R)-3-(2-(3,3-difluoroazetidin-1-yl)-6-vinylpyridin-4-yl)-10-methyl-9,10,11,12-tetrahydro-8H-[1,4]diazepino[5′,6′:4,5]thieno[3,2-f]quinolin-8-one] | 175
23 | (10R)-3-(2-(2,6-dimethylmorpholino)-6-vinylpyridin-4-yl)-10-methyl-9,10,11,12-tetrahydro-8H-[1,4]diazepino[5′,6′:4,5]thieno[3,2-f]quinolin- [Example I-201] | 73
24 | C=Cc1cc(-c2ccc3c(ccc4sc5c(c43)NC[C@@H](C)NC5=O)n2)cc(CN2CCN(C)CC2)n1 [Example I-125, (R)-10-methyl-3-(2-((4-methylpiperazin-1-yl)methyl)-6-vinylpyridin-4-yl)-9,10,11,12-tetrahydro-8H-[1,4]diazepino[5′,6′:4,5]thieno[3,2-f]quinolin-8-one] | 2
25 | C=Cc1nccn1-c1ccc2c(ccc3sc4c(c32)NC[C@@H](CF)NC4=O)n1 [Example I-255, (S)-10-(fluoromethyl)-3-(2-vinyl-1H-imidazol-1-yl)-9,10,11,12-tetrahydro-8H-[1,4]diazepino[5′,6′:4,5]thieno[3,2-f]quinolin-8-one] | 1
26 | C=Cc1ncnn1-c1ccc2c(ccc3sc4c(c32)NC[C@@H](C)NC4=O)n1 [Example I-214, (R)-10-methyl-3-(5-vinyl-1H-1,2,4-triazol-1-yl)-9,10,11,12-tetrahydro-8H-[1,4]diazepino[5′,6′:4,5]thieno[3,2-f]quinolin-8-one] | 2
27 | C=Cc1cc(-c2ccc3c(ccc4sc5c(c43)NC[C@@H](C)NC5=O)n2)nc(COC)n1 [Example I-13, (R)-3-(2-(methoxymethyl)-6-vinylpyrimidin-4-yl)-10-methyl-9,10,11,12-tetrahydro-8H-[1,4]diazepino[5′,6′:4,5]thieno[3,2-f]quinolin-8-one] | 1
28 | C#Cc1cc(-c2ccc3c(ccc4sc5c(c43)NC[C@@H](C)NC5=O)n2)nc(COCC)n1 [Example I-39, (R)-3-(2-(ethoxymethyl)-6-ethynylpyrimidin-4-yl)-10-methyl-9,10,11,12-tetrahydro-8H-[1,4]diazepino[5′,6′:4,5]thieno[3,2-f]quinolin-8-one] | 8
